Assay results from patent US4877782A, “Zinc ceftiofur complexes” (The Upjohn Company, priority 1988, dated 1989).
Counter-ions that a name gives are not always drawn. Like-named read-outs stand apart in the source and are kept apart here.

Experiments:
[1] = system: Salmonella typhimurium UC6164; test: standard mouse challenge test against Salmonella typhimurium UC6164 (survival, ED50); format: in vivo; details: for ED50: mice, s.c., adjusted for drug potency, 95% confidence limits
Experimental: (§1) Each test compound was suspended or dissolved in sterile Vehicle 122 (0.025% carboxymethylcellulose in water) to a starting test concentration sufficient to provide in the first set of test animals a concentration of the test drug of 2 mg./kg. Portions of each such test drug formulation were diluted seriatim 50:50 v/v with water to reduce the concentration of the test drug in the test animal to 1 mg./kg., then to 0.5 mg./kg., to 0.25 mg./kg. and finally to 0.125 mg./kg. Sets of mice were injected with the test dilutions of the test drugs subcutaneously once or three times after injecting challenge doses lethal doses of one of the above-named bacterial organisms. The sets of animals were observed over six days to determine the number of surviving mice. The mortality ratios were noted and the ED50 values were calculated for each test drug by standard methods.

[2] = system: Pasteurella multocida UC9581; test: standard mouse challenge test against Pasteurella multocida UC9581 (survival, ED50); format: in vivo; details: for ED50: mice, s.c., adjusted for drug potency, 95% confidence limits
Experimental: as §1

[3] = dissolution rate in water; format: physicochemical; details: for percent in aqueous solution in 20 minutes: ceftiofur hydrochloride unmicronized
bulk density = format: physicochemical
[4] = dispersibility in water, organic solvents and vegetable oils; format: physicochemical; details: in words
[5] = 20 minutes, comparable equilibration conditions
[6] = zinc ceftiofur hydrochloride vs. non-complexed hydrochloride salt
[7] = mouse challenge, in words, from ED50 numbers of Table I

Compound	ED50 ([1]; Salmonella enterica, sc, 144 h, UC6164, 579 LD50's, 1X treatment, read-out: ED50) [mg/kg]	ED50 ([1]; Salmonella enterica, sc, 144 h, UC6164, 1000 LD50's, 1X treatment, read-out: ED50) [mg/kg]	ED50 ([1]; Salmonella enterica, sc, 144 h, UC6164, 1000 LD50's, 3X treatments, read-out: ED50) [mg/kg]	ED50 ([2]; Pasteurella multocida, sc, 144 h, UC9581, 27 LD50's, 3X treatments, read-out: ED50) [mg/kg]	percent in aqueous solution in 20 minutes [3, 5] [%]	bulk density (bulk density; [6])	distribution in pharmaceutical aqueous vehicle formulations [4]	ED50 ([1]; UC6164, 1000 LD50's, 1X treatment, 8640 min, listed as C--Na) [mg/kg/day]	solubility in water after 20 minutes ([3]; 20 minutes, comparable equilibration conditions, zinc complex unmicronized) [%]	dissolution rate curves (percent dissolved over time) ([3]; in words, compared with sodium ceftiofur and ceftiofur hydrochloride)	bulk density (bulk density; zinc ceftiofur sodium complex from water vs. ceftiofur sodium salt) [g/mL]	ED50 ([1]; UC6164, 579 LD50's, 1X treatment, 8640 min) [mg/kg/day]	ED50 ([1]; UC6164, 1000 LD50's, 1X treatment, 8640 min) [mg/kg/day]	ED50 ([1]; UC6164, 1000 LD50's, 3X treatments, 8640 min) [mg/kg/day]	antibiotic protection [1, 7]	ED50 ([2]; UC9581, 27 LD50's, 3X treatments, 8640 min) [mg/kg/day]	ED50 ([2]; UC9581, 303 LD50's, 1X treatment, 8640 min) [mg/kg/day]	antibiotic protection [2, 7]	rate of dissolution ([3]; in words, compared to ceftiofur hydrochloride)	dispersibility in water and in common pharmaceutical organic solvents and vegetable oils ([4]; granular powders)
CO/N=C(\C(=O)N[C@@H]1C(=O)N2C(C(=O)O)=C(CSC(=O)c3ccco3)CS[C@H]12)c1csc(N)n1 [ceftiofur hydrochloride]	1.7	1.3	2.3	0.3	74	0.15 g/mL	less well adapted for distribution in pharmaceutical aqueous vehicle formulations													
CO/N=C(\C(=O)N[C@@H]1C(=O)N2C(C(=O)O)=C(CSC(=O)c3ccco3)CS[C@H]12)c1csc(N)n1 [ceftiofur sodium]								1.1	100	dissolves quite quickly in water	0.11									
zinc ceftiofur hydrochloride complex [Compound II]					48	about 0.24 g./ml.						1.0	3.3	2.1	potent antibiotic protection	0.4	0.3	potent antibiotic protection	much slower compared to ceftiofur hydrochloride	readily dispersible in water
